According to US10172879B2, “Nanocomplexes for co-delivering a drug and siRNA and uses thereof” (D.R.NANO CO., LTD, priority 2015, dated 2019):
d = 2'-deoxy (DNA)

Test: Serum stability assay (50% serum, 37° C., gel electrophoresis)
Type: in vitro ADME, bovine
Conditions: 50% serum media at 37° C., 0-24 h; HMplex N/P=4
Description: In vitro cytotoxicity studies of HMplexes were performed against normal cells (MRC-5 and NIH-3T3) and cancer cells (MDA-MB-231) using the colorimetric MTT assay. Cells were treated with HMplexes at various concentrations for 4 h and then incubated in a serum-free medium for another 44 h after washing twice with cold PBS (pH 7.4). After washing with PBS, the cells were treated with MTT reagents and the absorbance at 540 nm was measured with a microplate reader (Spectra Max 340, Molecular Devices, Sunnyvale, Calif., USA). The complex stability of HMplexes was evaluated by a heparin polyanion competition assay and a serum stability assay. For the heparin polyanion competition assay, HMplexes containing 1 μg siRNA were incubated with varying amounts of heparin (0-200 μg) for 30 min at room temperature and then subjected to 2% agarose gel electrophoresis. The decomplexed siRNA was detected with SYBR Gold staining. For serum stability studies, HMplexes or naked siRNA were incubated in 50% FBS/PBS (pH 7.4) at 37° C. for predetermined time periods (0-24 h). Aliquots from each sample were analyzed by 2% agarose gel electrophoresis and visualized with SYBR Gold.

## free siRNA: Custom Bcl-2 siRNA (sense Seq ID No. 1-dTdT; antisense Seq ID No. 2-dTdT), uncomplexed (sense GUACAUCCAUUAUAAGCUG; antisense CAGCUUAUAAUGGAUGUAC; RNA, 3' dTdT, backbone not given here)
  degradation of siRNA in serum: completely disappeared at 24 h
